# From patent US20230058623A1, “NOVEL HETEROARYL-TRIAZOLE COMPOUNDS AS PESTICIDES” (Bayer Aktiengesellschaft, priority 2019, published 2023)
# Read-outs that look alike come from different tables or passages of the source.
# Tests used:
# Format in all cases: in vivo
# [1] = system: adult unfed cat fleas (Ctenocephalides felis); assay: Ctenocephalides felis oral test; conditions: 48 h, read-out: activity (mortality)
# Protocol: Ctenocephalides felis—Oral Test
# Solvent: dimethyl sulfoxide
# To produce a suitable preparation of active compound, 10 mg of active compound are dissolved in 0.5 mL solvent, and the concentrate is diluted with citrated cattle blood to the desired concentration.
# Approximately 20 adult unfed cat fleas (Ctenocephalides felis) are placed in a flea chamber whose top and bottom is covered with gauze. A chamber whose bottom is sealed with parafilm, is filled with the blood-compound solution and placed on top of the flea chamber, so that the fleas can suck the blood. The blood chamber is heated to 37° C. whereas the flea chamber is kept at room temperature.
# After 2 days mortality in % is determined. 100% means all the fleas have been killed; 0% means none of the fleas have been killed.
# [2] = system: adult cat fleas (Ctenocephalides felis); assay: Ctenocephalides felis in-vitro contact test, adult cat flea; conditions: application rate 5 μg/cm^2 (=500 g/ha), after 48 hours, read-out: activity (efficacy: fleas dead or moribund)
# Summary of the method: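 After 48 h of room-temperature exposure in tubes whose walls carried dried compound residue (5 μg/cm^2, from 900 ppm acetone solution), adult cat fleas (5-10 per tube) were heat-challenged at 45-50° C up to 5 min. Fleas unable to climb away were counted dead or moribund, expressed as % efficacy.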
# [3] = system: Rhipicephalus (Boophilus) microplus larvae (strain Parkhurst, resistant against synthetic pyrethroids); assay: Rhipicephalus (Boophilus) microplus in-vitro contact test, larval cattle tick; conditions: read-out: activity (efficacy: larvae dead or moribund)
# Summary of the method: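 Pyrethroid-resistant Parkhurst larvae, 20–50 per tube, were kept 48 h at 27 °C and 85% relative humidity in glass tubes whose inner walls carried a dried acetone film of compound (900 ppm giving 5 μg/cm^2). Dead or moribund larvae, judged by loss of negative geotactic behavior, set percent efficacy.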
# [4] = system: green peach aphid (Myzus persicae); assay: Myzus persicae oral test; conditions: 120 h, read-out: activity (mortality)
# Summary of the method: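 Aphids of mixed population ingest the compound preparation by sucking through a parafilm sheet stretched over wells holding test solution plus IPL41 insect medium (33%+15% sugar). Kill rate in percent is determined five days later.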
# [5] = system: adult engorged female ticks (Rhipicephalus microplus); assay: Rhipicephalus (Boophilus) microplus injection test; conditions: 168 h, read-out: activity (efficacy: infertile eggs)
# Summary of the method: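 Compound in DMSO (10 mg per 0.5 mL, then diluted with DMSO to test concentration); 1 μL injected into the abdomen of each of five engorged females, then held in a climate chamber. Fertile egg deposition checked at 7 days; efficacy 100% = all eggs infertile, 0% = all fertile.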
# [6] = system: fall armyworm larvae (Spodoptera frugiperda); assay: Spodoptera frugiperda spray test; conditions: 168 h, application rate 100 g/ha, after 7 days, maize leaf sections
# Summary of the method: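 Percent larval kill read at day 7 on Zea mays leaf pieces that were spray-treated and, after drying, infested. Spray preparations made by dilution with emulsifier-containing water (1000 ppm).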
# [7] = system: adult brown dog ticks (Rhipicephalus sanguineus); assay: Rhipicephalus sanguineus in-vitro contact test, adult brown dog ticks; conditions: application rate 5 μg/cm^2 (=500 g/ha), after 48 hours, read-out: activity (efficacy: ticks dead or moribund)
# Summary of the method: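 Efficacy is % of adult ticks dead or moribund 48 h after confinement at room temperature in tubes wall-coated from acetone (5 μg/cm² at 900 ppm). Scoring by heat challenge at 45-50 °C up to 5 min; immotile or uncoordinated ticks failing to climb count as affected.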
# [8] = system: green peach aphid (Myzus persicae); assay: Myzus persicae spray test; conditions: foliar, 120 h, read-out: activity (mortality)
# Summary of the method: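 Percent kill was recorded 5 days after spraying. Test solutions, prepared with solvent and diluted in 1000 ppm emulsifier water, were applied to Brassica pekinensis leaf disks carrying mixed-instar green peach aphids.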
# [9] = system: larvae of the banded cucumber beetle (Diabrotica balteata); assay: Diabrotica balteata spray test; conditions: 168 h, application rate 100 g/ha (=32 μg/well), after 7 days, wheat seeds, read-out: activity (efficacy: seedlings grown)
# Summary of the method: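 Efficacy (%) read 7 days after infesting treated seedlings with 10-20 banded cucumber beetle larvae, 100% meaning growth as in uninfected untreated control and 0% no growth. Test solutions in water containing 1000 ppm emulsifier were sprayed onto wheat seeds germinated for 1 day on agar.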
# [10] = system: larvae of the southern green stink bug (Nezara viridula); assay: Nezara viridula spray test; conditions: 96 h; for mortality at 100 g/ha: application rate 100 g/ha, after 4 days, barley plants
# Summary of the method: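 Barley plants sprayed with the active compound in emulsifier-containing water, then infested with stink bug larvae. Mortality scored in % after 4 days, with 100% meaning all insects killed.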
# [11] = application rate 1 μg/cm^2 (=100 g/ha), after 48 hours
# [12] = application rate 5 μg/cm^2 (=500 g/ha), after 48 hours
# [13] = application rate 4 μg/tick, egg deposition after 7 days
# [14] = application rate 100 g/ha, after 5 days, Chinese cabbage leaf disks
Structure (SMILES),mortality at 100 ppm [1],pest or weed control at 5 µg/cm2 [2],"pest or weed control at 1 µg/cm2, 100 g/ha [3, 11]","pest or weed control at 5 µg/cm2, 500 g/ha [3, 12]",mortality at 4 ppm [4],"pest or weed control at 0.004 mg [5, 13]",mortality at 100 g/ha [6],"pest or weed control at 5 µg/cm2, 500 g/ha [7]","mortality at 100 g/ha [8, 14]","pest or weed control at 32 µg/disc, 100 g/ha [9]",mortality at 100 g/ha [10],mortality at 100 g/ha ([8]; in Brassica rapa),"pest or weed control at 1 µg/cm2, 100 g/ha ([3]; 48 h)","pest or weed control at 5 µg/cm2, 500 g/ha ([3]; 48 h)","mortality at 500 g/ha ([10]; in Hordeum vulgare, read-out: activity (mortality))",pest or weed control at 0.004 mg [5]
C[C@H](NC(=O)c1cc(C(F)(F)F)cc(C(F)(F)F)c1)c1ncnn1-c1ccc(C(=O)N2CCCC(O)C2)cn1 (stereo partly drawn) [Example I-7],90%,90%,90%,90%,100%,100%,–,–,–,–,–,–,–,–,–,–
Cc1nc([C@H](C)NC(=O)c2cc(C(F)(F)F)cc(C(F)(F)F)c2)n(-c2ncc(C(=O)N3CCC3)s2)n1 [Example I-17],100%,80%,100%,100%,100%,100%,100%,–,–,–,–,–,–,–,–,–
Cc1nc([C@H](C)NC(=O)c2cc(Cl)cc(C(F)(F)F)c2)n(-c2ccc(C(=O)N3CC[C@H](F)C3)cn2)n1 [Example I-18],100%,90%,100%,90%,–,100%,100%,100%,–,–,–,–,–,–,–,–
Cc1nc([C@H](C)NC(=O)c2cc(Cl)cc(C(F)(F)F)c2)n(-c2ccc(C(=O)N3CC[C@@H](F)C3)cn2)n1 [Example I-19],100%,100%,100%,100%,90%,100%,100%,100%,–,–,–,–,–,–,–,–
Cc1nc([C@H](C)NC(=O)c2cc(Cl)cc(C(F)(F)F)c2)n(-c2ccc(C(=O)N3CCCC3)cn2)n1 [Example I-22],80%,90%,90%,90%,–,100%,100%,100%,–,–,–,–,–,–,–,–
C[C@@H]1CN(C(=O)c2ccc(-n3ncnc3[C@H](C)NC(=O)c3cc(Cl)cc(C(F)(F)F)c3)nc2)CCO1 [Example I-32],90%,100%,100%,100%,100%,100%,100%,100%,100%,100%,–,–,–,–,–,–
C[C@H](NC(=O)c1cc(Cl)cc(C(F)(F)F)c1)c1ncnn1-c1ccc(C(=O)N2CCOC[C@H]2C)cn1 [Example I-33],100%,–,100%,100%,–,100%,100%,100%,–,–,90%,–,–,–,–,–
C[C@H](NC(=O)c1cc(Cl)cc(C(F)(F)F)c1)c1ncnn1-c1ccc(C(=O)N2CCOC[C@@H]2C)cn1 [Example I-37],80%,–,100%,100%,–,100%,100%,100%,–,100%,–,–,–,–,–,–
C[C@H](NC(=O)c1cc(Cl)cc(C(F)(F)F)c1)c1ncnn1-c1ccc(C(=O)N2CC3CC(C2)O3)cn1 [Example I-41],100%,80%,–,–,100%,100%,–,100%,–,100%,–,90%,100%,100%,–,–
Cc1nc([C@H](C)NC(=O)c2cc(C(F)(F)F)cc(C(F)(F)F)c2)n(-c2ccc(C(=O)N3CCC[Si](C)(C)C3)cn2)n1 [Example I-93],100%,–,–,–,–,–,–,–,–,–,–,–,90%,90%,90%,100%
Cc1nc([C@H](C)NC(=O)c2cc(C(F)(F)F)cc(C(F)(F)F)c2)n(-c2ccc(C(=O)N3C[C@H](C)O[C@@H](C)C3)cn2)n1 [Example I-95],100%,100%,100%,100%,–,100%,100%,100%,–,100%,100%,–,–,–,–,–
C[C@@H]1CN(C(=O)c2ccc(-n3ncnc3[C@H](C)NC(=O)c3cc(OC(F)(F)F)cc(C4CC4)c3)nc2)C[C@@H](C)O1 [Example I-116],100%,100%,100%,100%,100%,100%,–,80%,90%,80%,–,–,–,–,–,–
Cc1nc([C@H](C)NC(=O)c2cc(OC(F)(F)F)cc(C3CC3)c2)n(-c2ccc(C(=O)N3C[C@@H](C)O[C@H](C)C3)cn2)n1 [Example I-117],90%,100%,90%,90%,100%,100%,–,100%,90%,–,–,–,–,–,–,–
